Results published in PubChem BioAssay (NCI).
Several values for one entry are separate records, joined by “and”; a condition that tells them apart may be missing. Equal entries are not always repeated.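 All cell lines were grown in 96-well plates and treated with compound for 48 hours. GI50 is the concentration that inhibits growth by half. Definition used: TGI = concentration required for complete inhibition of growth.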

Assays:
Assay in all cases: inhibition of tumour cell growth, NCI panel, 48 h
SK-OV-3 ovarian = tested on: SK-OV-3 ovarian
TK-10 renal = tested on: TK-10 renal
NCI-H23 lung = tested on: NCI-H23 lung
NCI-H226 lung = tested on: NCI-H226 lung
OVCAR-3 ovarian = tested on: OVCAR-3 ovarian
MALME-3M melanoma = tested on: MALME-3M melanoma
SF-539 CNS = tested on: SF-539 CNS
KM12 colon = tested on: KM12 colon
DU-145 prostate = tested on: DU-145 prostate
OVCAR-8 ovarian = tested on: OVCAR-8 ovarian

Work on `Nc1nc(N)c2c(n1)CCC(S(=O)(=O)c1ccc3ccccc3c1)C2` (stereo unspecified) yielded a TGI (SK-OV-3 ovarian) of over 100 µM, a TGI (TK-10 renal) of 51.4 µM and a TGI (NCI-H23 lung) of over 100 µM. For the same compound, the TGI (NCI-H226 lung) was over 100 µM, the TGI (OVCAR-3 ovarian) was over 82.9 µM and the TGI (MALME-3M melanoma) was 42.7 µM. It also gave a TGI (SF-539 CNS) of over 100 µM, a TGI (KM12 colon) of over 100 µM and a TGI (DU-145 prostate) of over 100 µM. It also gave a TGI (OVCAR-8 ovarian) of over 100 µM.
With `C=CC(=O)N1CCC[C@@H](n2nc(-c3ccc(Oc4ccccc4)cc3)c3c(N)ncnc32)C1` the GI50 (SK-OV-3 ovarian) was 0.0285 µM, the TGI (SK-OV-3 ovarian) was over 2.42 µM and the GI50 (TK-10 renal) was 0.0409 µM. It also gave a TGI (TK-10 renal) of 3.14 µM, a GI50 (NCI-H23 lung) of over 10 µM and a TGI (NCI-H23 lung) of over 10 µM. For the same compound, the GI50 (NCI-H226 lung) was over 6.06 µM, the TGI (NCI-H226 lung) was over 10 µM and the GI50 (OVCAR-3 ovarian) was over 6.8 µM. The TGI (OVCAR-3 ovarian) was over 10 µM, the GI50 (MALME-3M melanoma) was over 10 µM and the TGI (MALME-3M melanoma) was over 10 µM. It also gave a GI50 (SF-539 CNS) of over 6.36 µM, a TGI (SF-539 CNS) of over 10 µM and a GI50 (KM12 colon) of over 8.92 µM. For the same compound, the TGI (KM12 colon) was over 10 µM, the GI50 (DU-145 prostate) was 3.03 µM and the TGI (DU-145 prostate) was over 10 µM. For the same compound, the GI50 (OVCAR-8 ovarian) was over 8.16 µM and the TGI (OVCAR-8 ovarian) was over 10 µM.
`O=c1/c(=C\c2ccc(Br)cc2)sc2n1C(c1ccc(Br)cc1)C1=C(N=2)c2ccc3ccccc3c2OCC1` (stereo unspecified) gave a GI50 (SK-OV-3 ovarian) of over 100 µM, a TGI (SK-OV-3 ovarian) of over 100 µM and a GI50 (TK-10 renal) of over 100 µM. For the same compound, the TGI (TK-10 renal) was over 100 µM, the GI50 (NCI-H23 lung) was over 100 µM and the TGI (NCI-H23 lung) was over 100 µM. The GI50 (NCI-H226 lung) was over 100 µM, the TGI (NCI-H226 lung) was over 100 µM and the GI50 (OVCAR-3 ovarian) was over 100 µM. The TGI (OVCAR-3 ovarian) was over 100 µM, the GI50 (MALME-3M melanoma) was over 100 µM and the TGI (MALME-3M melanoma) was over 100 µM. For the same compound, the GI50 (SF-539 CNS) was over 100 µM, the TGI (SF-539 CNS) was over 100 µM and the GI50 (KM12 colon) was over 100 µM. It also gave a TGI (KM12 colon) of over 100 µM, a GI50 (DU-145 prostate) of over 100 µM and a TGI (DU-145 prostate) of over 100 µM. For the same compound, the GI50 (OVCAR-8 ovarian) was over 100 µM and the TGI (OVCAR-8 ovarian) was over 100 µM.
Compound `Nc1n[nH]c2ccc([C@@H]3Nc4ccc5cn[nH]c5c4[C@H]4C5CCC(C5)[C@@H]34)cc12` (stereo partly specified) has a GI50 (SK-OV-3 ovarian) of 0.831 µM, a TGI (SK-OV-3 ovarian) of over 100 µM and a GI50 (TK-10 renal) of 15.1 µM. The TGI (TK-10 renal) was over 100 µM, the GI50 (NCI-H23 lung) was 0.453 µM and the TGI (NCI-H23 lung) was 38.5 µM. For the same compound, the GI50 (NCI-H226 lung) was 0.977 µM, the TGI (NCI-H226 lung) was 50 µM and the GI50 (OVCAR-3 ovarian) was 0.346 µM. For the same compound, the TGI (OVCAR-3 ovarian) was 10.9 µM, the GI50 (MALME-3M melanoma) was 0.522 µM and the TGI (MALME-3M melanoma) was over 100 µM. For the same compound, the GI50 (SF-539 CNS) was 0.299 µM, the TGI (SF-539 CNS) was 3.38 µM and the GI50 (KM12 colon) was 0.47 µM. It also gave a TGI (KM12 colon) of 28 µM, a GI50 (DU-145 prostate) of 0.417 µM and a TGI (DU-145 prostate) of over 100 µM. The GI50 (OVCAR-8 ovarian) was 0.606 µM and the TGI (OVCAR-8 ovarian) was over 100 µM.
With `O=C(Nc1cccc(-n2cc(-c3ccncc3)c(-c3ccc(Cl)c(O)c3)n2)c1)Nc1ccc(Cl)c(Cl)c1` the GI50 (SK-OV-3 ovarian) was 1.2 µM, the TGI (SK-OV-3 ovarian) was over 32.5 µM and the GI50 (TK-10 renal) was 1.91 µM. It also gave a TGI (TK-10 renal) of over 32.5 µM, a GI50 (NCI-H23 lung) of 1.22 µM and a TGI (NCI-H23 lung) of 29.1 µM. It also gave a GI50 (NCI-H226 lung) of 1.51 µM, a TGI (NCI-H226 lung) of over 32.5 µM and a GI50 (OVCAR-3 ovarian) of 1.05 µM. It also gave a TGI (OVCAR-3 ovarian) of 3.15 µM, a GI50 (MALME-3M melanoma) of 1.19 µM and a TGI (MALME-3M melanoma) of 8.1 µM. It also gave a GI50 (SF-539 CNS) of 1.34 µM, a TGI (SF-539 CNS) of 8.97 µM and a GI50 (KM12 colon) of 1.01 µM. It also gave a TGI (KM12 colon) of 4.47 µM, a GI50 (DU-145 prostate) of 1.5 µM and a TGI (DU-145 prostate) of over 32.5 µM. For the same compound, the GI50 (OVCAR-8 ovarian) was 1.21 µM and the TGI (OVCAR-8 ovarian) was over 32.5 µM.
Compound `c1ccc(CC(Nc2cccnc2)c2ccccc2)cc1` (stereo unspecified) has a TGI (SK-OV-3 ovarian) of over 100 µM, a TGI (TK-10 renal) of 94.9 µM and a TGI (NCI-H23 lung) of 82.2 µM. It also gave a TGI (NCI-H226 lung) of 51.4 µM, a TGI (OVCAR-3 ovarian) of 34.3 µM and a TGI (MALME-3M melanoma) of 72.4 µM. It also gave a TGI (SF-539 CNS) of 40.5 µM, a TGI (KM12 colon) of 70.2 µM and a TGI (DU-145 prostate) of over 100 µM. The TGI (OVCAR-8 ovarian) was over 100 µM.
`CC1[C@@H]2CC=C3[C@H]4CCC5Cc6nc7c(nc6C[C@@]5(C)C4CC(=O)[C@]32CO[C@]12OC(C)(C)CC2O)CC1CC[C@@H]2C3=C[C@H]4O[C@@]5(O[C@@](C)(CO)C[C@@H]5O)C(C)[C@@]4(O)[C@]3(C)[C@@H](O)CC2[C@]1(C)C7` (stereo partly specified) was tested, and the GI50 (SK-OV-3 ovarian) was 0.00138 µM and 0.00234 µM, the TGI (SK-OV-3 ovarian) was 0.0239 µM and 0.073 µM and the TGI (TK-10 renal) was 0.576 µM. For the same compound, the GI50 (NCI-H23 lung) was 0.00281 µM, the TGI (NCI-H23 lung) was 0.275 µM and 0.0672 µM and the TGI (NCI-H226 lung) was 0.0901 µM and 0.103 µM. For the same compound, the GI50 (OVCAR-3 ovarian) was 0.0713 µM and 0.498 µM, the TGI (OVCAR-3 ovarian) was 0.62 µM and 3.33 µM and the GI50 (MALME-3M melanoma) was 0.00807 µM and 0.00577 µM. For the same compound, the TGI (MALME-3M melanoma) was 0.145 µM and 0.0648 µM, the GI50 (SF-539 CNS) was 0.00016 µM and 0.000365 µM and the GI50 (KM12 colon) was 0.00188 µM and 0.000966 µM. The TGI (KM12 colon) was 0.0788 µM and 0.0848 µM, the GI50 (DU-145 prostate) was 0.0538 µM and the TGI (DU-145 prostate) was 0.716 µM. For the same compound, the TGI (OVCAR-8 ovarian) was 0.745 µM and > 3.65 µM.
